Assay: recombinant UMI read abundance after kanamycin selection (control-corrected) (log10(CPM+1)); higher = more efficient recombination; extreme values may be limits of the assay; sequences stand for … in AGTGCAGAGAAAATCGGCCAGTTTTCTCTGCCTGCAGTCCGCATGCCGTGGGACCCCTTGGGTTCTAACCTGTTGCCTAGATTTATGCAGCGGACTGCCTTTCTCCCAAAGTGATAAACCGG…AGGTTGGTTTCACT; site = the 11-nt donor
How it was run: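 Values are reported as log10(CPM+1), obtained by converting sequencing counts to CPM, averaging replicates and scaling by control-derived factors. The counts came from recombinant UMIs amplified by PCR across the donor–target junction. These UMIs came from a pooled Escherichia coli screen of donor and donor-binding-loop pairs for the IS621 bridge recombinase, plated with IPTG (0.07 mM) plus kanamycin or left unselected, in two replicates each.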
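Note: IS621 bridge recombinase in Escherichia coli cells against a fixed T5 target plasmid.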

Q: Which “recombinant UMI read abundance (log10)” value does the source give for “GAAGTTTCATGGACCGGTTTTCCCGGTAATCCGTATTTGTT (site GAAGATTCTAA)” here?
A: 0

Q: For “TCCAATGCATGGACCGGTTTTCCCGGTAATCCGTATTTGCC (site TCCAATTCTGG)”, which “recombinant UMI read abundance (log10)” value is on record?
A: 0

Q: With “ATATGAACATGGACCGGTTTTCCCGGTAATCCGTATTTGTC (site ATATGAACTGA)” as the sequence, how does the “recombinant UMI read abundance (log10)” value read?
A: 2.77

Q: With “AGTTCAGCATGGACCGGTTTTCCCGGTAATCCGTATTTGAT (site AGTTCAGCTAT)” as the sequence, how does the “recombinant UMI read abundance (log10)” value read?
A: 1.05

Q: With “GGCTAGACATGGACCGGTTTTCCCGGTAATCCGTATTTGCC (site GGCTAGACTGG)” as the sequence, how does the “recombinant UMI read abundance (log10)” value read?
A: 0.563

Q: With “CTTAAAGCATGGACCGGTTTTCCCGGTAATCCGTATTTGAT (site CGTAAAGCTAT)” as the sequence, how does the “recombinant UMI read abundance (log10)” value read?
A: 0

Q: With “AGACTTGCATGGACCGGTTTTCCCGGTAATCCGTATTTGCA (site AGACTTGCTTG)” as the sequence, how does the “recombinant UMI read abundance (log10)” value read?
A: 0

Q: Which “recombinant UMI read abundance (log10)” value does the source give for “TGGTCTGCATGGACCGGTTTTCCCGGTAATCCGTATTTGCG (site ACCGTCTCTGA)” here?
A: 0

Q: Which “recombinant UMI read abundance (log10)” value does the source give for “CAATGCTCATGGACCGGTTTTCCCGGTAATCCGTATTTGAA (site CAAAGCTCTTT)” here?
A: 0.393

Q: Which “recombinant UMI read abundance (log10)” value does the source give for “CCTAAAGCATGGACCGGTTTTCCCGGTAATCCGTATTTGCT (site CCTAAAGCTAA)” here?
A: 0.00467

Q: With “CGGTTCCCATGGACCGGTTTTCCCGGTAATCCGTATTTGTG (site TGGTTCCCTCA)” as the sequence, how does the “recombinant UMI read abundance (log10)” value read?
A: 0.0119

Q: Which “recombinant UMI read abundance (log10)” value does the source give for “TCCACCGCATGGACCGGTTTTCCCGGTAATCCGTATTTGCG (site TCCACCACTCG)” here?
A: 0.00973

Q: For “ATAGTATCATGGACCGGTTTTCCCGGTAATCCGTATTTGAC (site TTAGTATCTGT)”, which “recombinant UMI read abundance (log10)” value is on record?
A: 2.66

Q: For “GGGGAGGCATGGACCGGTTTTCCCGGTAATCCGTATTTGTG (site GTGGAGGCTCA)”, which “recombinant UMI read abundance (log10)” value is on record?
A: 0.134

Q: With “AATGTAACATGGACCGGTTTTCCCGGTAATCCGTATTTGTT (site AATGTAACTAG)” as the sequence, how does the “recombinant UMI read abundance (log10)” value read?
A: 0.466

Q: With “CACCGTCCATGGACCGGTTTTCCCGGTAATCCGTATTTGAT (site TACCGTCCTAT)” as the sequence, how does the “recombinant UMI read abundance (log10)” value read?
A: 0.0173

Q: With “GATTATCCATGGACCGGTTTTCCCGGTAATCCGTATTTGTT (site GATTATCCTAC)” as the sequence, how does the “recombinant UMI read abundance (log10)” value read?
A: 0

Q: With “TCCACCGCATGGACCGGTTTTCCCGGTAATCCGTATTTGCG (site CCCACCGCTCG)” as the sequence, how does the “recombinant UMI read abundance (log10)” value read?
A: 0.0205

Q: With “CGATTCCCATGGACCGGTTTTCCCGGTAATCCGTATTTGCT (site CAATTCCCTAG)” as the sequence, how does the “recombinant UMI read abundance (log10)” value read?
A: 0.32

Q: Which “recombinant UMI read abundance (log10)” value does the source give for “CCTAATACATGGACCGGTTTTCCCGGTAATCCGTATTTGGT (site CCTAATACTCC)” here?
A: 0.0104

Q: Which “recombinant UMI read abundance (log10)” value does the source give for “CAATGCTCATGGACCGGTTTTCCCGGTAATCCGTATTTGAA (site TAATGCTCTTT)” here?
A: 0.0133

Q: With “CGTTAGACATGGACCGGTTTTCCCGGTAATCCGTATTTGAG (site CGTTAGACTAT)” as the sequence, how does the “recombinant UMI read abundance (log10)” value read?
A: 1.08

Q: Which “recombinant UMI read abundance (log10)” value does the source give for “ACTTAGACATGGACCGGTTTTCCCGGTAATCCGTATTTGGG (site ACATAGACTCC)” here?
A: 0.0123

Q: For “CCAACTTCATGGACCGGTTTTCCCGGTAATCCGTATTTGTA (site CCAACTTCTTA)”, which “recombinant UMI read abundance (log10)” value is on record?
A: 0.301

Q: With “ATTAAGACATGGACCGGTTTTCCCGGTAATCCGTATTTGAA (site ATTAAGACTTT)” as the sequence, how does the “recombinant UMI read abundance (log10)” value read?
A: 1.43

Q: For “CAAGCGCCATGGACCGGTTTTCCCGGTAATCCGTATTTGTG (site CAAGCGGCTCA)”, which “recombinant UMI read abundance (log10)” value is on record?
A: 0.00842

Q: With “ATTGTTACATGGACCGGTTTTCCCGGTAATCCGTATTTGTG (site ATTGTTACTCA)” as the sequence, how does the “recombinant UMI read abundance (log10)” value read?
A: 0.634

Q: For “GGTCCAACATGGACCGGTTTTCCCGGTAATCCGTATTTGTA (site GGACCAACTTA)”, which “recombinant UMI read abundance (log10)” value is on record?
A: 0.00547

Q: Which “recombinant UMI read abundance (log10)” value does the source give for “ACTGGTGCATGGACCGGTTTTCCCGGTAATCCGTATTTGGT (site ACTTGTGCTAC)” here?
A: 0.401

Q: For “TAACAGGCATGGACCGGTTTTCCCGGTAATCCGTATTTGTT (site TAACAGGCTAA)”, which “recombinant UMI read abundance (log10)” value is on record?
A: 1.1

Q: Which “recombinant UMI read abundance (log10)” value does the source give for “CGGAATCCATGGACCGGTTTTCCCGGTAATCCGTATTTGTT (site CGGGATCCTAG)” here?
A: 0

Q: For “AACCGTACATGGACCGGTTTTCCCGGTAATCCGTATTTGAT (site AACCGTACTAT)”, which “recombinant UMI read abundance (log10)” value is on record?
A: 1

Reference: the supplement of paper PMC11208160
